Laboratory results as given in US20060025482A1, “(-)-Hydroxycitric acid for the modulation of angiotensin-converting enzyme” (priority 2004, published 2006).

Key:
Sprague-Dawley Rats = experiment: Systolic blood pressure by tail plethysmography in Sprague-Dawley rats on special diet (Example 1); assay type: in vivo, rat; settings: SD rats
Text: (§1) A know effect of ACE inhibitors is a reduction in elevated systolic blood pressure. To test this, the following protocol was employed: Sprague-Dawley Rats (SD), approximately 8 weeks of age werw obtained. Six groups of eight male SD received the same […] rat chow manufactured to specifications. The special diets derived 30% of calories from fats (one half from lard and one half from corn oil), 50% from carbohydrates, and 20% from proteins. Twenty percent of dietary calories was derived from sucrose and the preponderance of the remaining carbohydrate calories was derived from dextrin. During weekdays (M-F), each group was gavaged twice daily with a solution containing a commercial source of potassium hydroxycitrate (KHCA), a commercial source of potassium-calcium hydroxycitrate (KCaHCA), or a pre-commercial non-salt source of potassium-magnesium hydroxycitrate (KMgHCA, listed as KMgHCA L-Low, M-Intermediate or H-High depending upon the dose). Over the weekends (S-S), a similar quantity of the weekday daily dose was added to twenty grams of food, that is, an amount of food estimated to be close to the daily intake of the animals. At initiation of study and four weeks, and eight weeks later, bloods were drawn from all SD for routine blood chemistries. Body weight (BW) was measured weekly and systolic blood pressure (SBP) was measured every two weeks.
The HCA dosages in the arms varied. The dosage used in the KHCA arm was extrapolated from the recommended 1,500 mg HCA per day for humans consuming a normal diet (i.e., ≧30% calories derived from fats) advocated by a commercial seller of KHCA and claimed to have produced acceptable clinical results. The approximate equivalent for the rat model is 35.4 mg HCA per day, which we increased to 38.4 mg HCA per day for convenience in employing a 48% HCA potassium salt and to remain safely on the high side in practice. For the sake of comparison, a commercial KCaHCA salt (60% HCA) was chosen and delivered at an HCA dosage level of 48 mg per day, which slightly exceeded the lowest dosage of HCA found to be efficacious for inhibition of weight gain in rats in the early pharmaceutical trials (45.4 mg/day) using pure trisodium hydroxycitrate and a very low fat diet. The design thus utilized a realistic diet with rough equivalents of the HCA dosages claimed to be effective in both the human and rat models.
The experimental KMgHCA dosings varied considerably from that of the other two salts. […] As a result, the recalculated HCA doses for the experimental compound were a low dose (KMgHCA L) of 14 mg, an intermediate dose (KMgHCA M) of 28 mg and a high dose (KMgHCA H) of 84 mg per day. The difficulty in calculating the HCA content in this case is not unique inasmuch as there is as of yet no universally accepted method for calculating the HCA content of the various salts. Again, preparations yielded the equivalent of 48 mg HCA per day from KCaHCA and 38.4 mg HCA per day from KHCA.
(§2) Systolic Blood Pressure (SBP): SBP was estimated by tail plethysmography in unanesthetized rats after a brief warming period. Readings were taken approximately one minute apart. To be accepted, SBP measurements had to be virtually stable for a minimum of three consecutive readings.
(§3) Statistical Analyses: Results are presented as mean±SEM. Many statistics were performed by one-way analysis of variance (ANOVA). SBP and BW were examined by two-way analyses of variance (one factor being dietary group and the second factor being time of examination). Where a significant effect of diet was detected by ANOVA (p<0.05), the Dunnett t test was used to establish which differences between means reached statistical significance (p<0.05). If a Student's t test was employed, this is noted.

[1] = Blood chemistries in Sprague-Dawley rats (Example 1); assay type: in vivo, rat; settings: SD rats; for average insulin concentrations compared to control: differences not significant using ANOVA, all dose groups
Text: as §1, §3

[2] = Body weight of SHR on chow/table sugar diet (Example 2); assay type: in vivo, rat; settings: 100 mg HCA per day in food, p=0.084
Experimental: (§4) Spontaneously hypertensive rats (SHR) were placed on a diet composed of regular rat chow (60% w/w) and table sugar (40% w/w). This diet reliably elevates blood pressure in this animal model. One group received 100 mg HCA per day in the form of a new potassium-magnesium hydroxycitrate (different from that used in Example 1) via an added 5 g HCA per kg of food mix. Systolic blood pressure and body weight were tested as in Example 1 on a weekly basis.

[3] = tested on: Spontaneously hypertensive rats (SHR); experiment: Systolic blood pressure of SHR on chow/table sugar diet (Example 2); assay type: in vivo, rat; settings: 100 mg HCA per day in food, control SBP steadily increased
Experimental: as §2, §4

[4] = tested on: Spontaneously hypertensive rats (SHR); experiment: Glucose tolerance test with 0.1 unit regular insulin injected along with glucose in SHR; assay type: in vivo, rat; settings: 100 mg HCA per day, at 7.5 minutes
Experimental: as §4
This was viewed as likely positive in that rats gain weight steadily as long as they remain in good health and the SHR at middle age, as used here, lives a relatively short life and its health deteriorates as its blood pressure rises. […] A glucose tolerance test was administered in which 0.1 unit of regular insulin was injected along with glucose. […] This finding indicates increased insulin sensitivity. (FIG. 6)

[5] = tested on: Spontaneously hypertensive rats (SHR); experiment: Losartan challenge: SBP response in SHR; assay type: in vivo, rat
Text: Many factors can positively influence blood pressure, e.g., diuretics, antioxidants, regulators of sympathetic/parasympathetic tone, compounds that improve insulin sensitivity and so forth. Therefore, losartan, an angiotensin-2 receptor blocker, was utilized to discover whether the ACE system was involved in the results discussed in Example 1.
as §4
When losartan was injected, the SBP of both groups decreased. At 6 hours, the SBP were essentially the same. […] Thus, HCA appears to decrease angiotensin-2 in rats and to lower elevated SBP. Although insulin regulation likely is a factor in the blood pressure modulating effect of HCA, this evidence argues that inhibition of ACE is also important. […]

[6] = twice a day; diet consisting of 70% glucose and 1% fat; cited from earlier work
[7] = treated rats; cited from earlier work
[8] = Earlier study of SBP with a KCaHCA salt, not described; assay type: in vivo; settings: 120 mg HCA per day
[9] = gavaged twice daily, KHCA 38.4 mg HCA per day, KCaHCA 48 mg HCA per day
[10] = high dose (KMgHCA H) 84 mg HCA per day
[11] = intermediate dose (KMgHCA M) 28 mg HCA per day

Question: With O=C([O-])CC(O)(C(=O)[O-])C(O)C(=O)[O-].[K+].[K+].[K+] (centres unmarked) [KHCA, potassium hydroxycitrate] as the compound, how does the “SBP compared to control at the end of eight weeks” value (Sprague-Dawley Rats; [9]) read?
Answer: Its value is “significant decreases”.

Question: And the “insulin, control versus treatment, Student's t test” value ([1]; KHCA 38.4 mg HCA per day)?
Answer: Its value is “showed significance”.

Question: And the “average insulin concentrations compared to control” value [1]?
Answer: Its value is “lower”.

Question: Which results are given for O=C([O-])CC(O)(C(=O)[O-])C(O)C(=O)[O-].[K+].[Mg+2] (centres unmarked) [KMgHCA, potassium-magnesium hydroxycitrate]?
Answer: SBP compared to control at the end of eight weeks (Sprague-Dawley Rats; [10]): significant decreases; lowering of SBP at the end of 8 weeks (Sprague-Dawley Rats; [10]): over 10 mm Hg; SBP compared to control at the end of eight weeks (Sprague-Dawley Rats; [11]): significant decreases; lowering of SBP at the end of 8 weeks (Sprague-Dawley Rats; [11]): over 10 mm Hg; SBP at the end of 8 weeks (Sprague-Dawley Rats; low dose (KMgHCA L) 14 mg HCA per day): essentially did nothing; insulin, control versus treatment, Student's t test ([1]; KMgHCA H 84 mg HCA per day, p=0.058): at the margin of significance; average insulin concentrations compared to control [1]: lower; body weight over three weeks [2]: trend for an increase; SBP from baseline [3]: decrease in SBP from baseline; glucose appearance in bloodstream in glucose tolerance test [4]: significantly lesser rise; decrease in SBP after losartan injection ([5]; 100 mg HCA per day, at 6 hours, versus control): −21.7±7.0

Question: Which “SBP after losartan injection” value ([5]; both groups (control and KMgHCA)) does the source give for CCCCc1nc(Cl)c(CO)n1Cc1ccc(-c2ccccc2-c2nn[nH]n2)cc1 [losartan, reference compound] here?
Answer: Its value is “decreased”.

Question: With O=C([O-])CC(O)(C(=O)[O-])C(O)C(=O)[O-].[Na+].[Na+].[Na+] (centres unmarked) [trisodium hydroxycitrate] as the compound, how does the “lowest dose in rats shown to be efficacious in reducing weight gain” value [6] read?
Answer: Its value is 0.33 mmol/kg.

Question: With O=C(O)CC(O)(C(=O)O)C(O)C(=O)O (single isomer, unassigned; (-)) [(−)-hydroxycitrate, (−)-Hydroxycitric acid] as the compound, how does the “plasma levels of glucose, insulin, or free fatty acids relative to controls” value [7] read?
Answer: The value was “no significant differences”.

Question: Which “SBP compared to control at the end of eight weeks” value (Sprague-Dawley Rats; [9]) does the source give for O=C([O-])CC(O)(C(=O)[O-])C(O)C(=O)[O-].[Ca+2].[K+] (centres unmarked) [KCaHCA, potassium-calcium hydroxycitrate] here?
Answer: The value was “significant decreases”.

Question: What about the “average insulin concentrations compared to control” value [1] of the same compound?
Answer: Its value is “did not show a trend toward lower circulating insulin”.

Question: What about the “SBP in earlier study” value [8] of the same compound?
Answer: The value was “decrease in SBP”.
